Experimental data: patent US20220062240A1, “METHODS OF TREATING CANCER USING A CLK INHIBITOR” (BioSplice Therapeutics, Inc., priority 2018, published 2022)
Like-named read-outs stand apart in the source and are kept apart here.

Legend:
[1] = system: haematopoietic & lymphoid tumors (13 cell lines); experiment: CellTiter-Glo Viability Assay, haematopoietic & lymphoid tumors; type: cell-based; settings: Homo sapiens
[2] = system: pancreatic cancer (8 cell lines); experiment: CellTiter-Glo Viability Assay, pancreatic cancer; type: cell-based; settings: Homo sapiens
[3] = system: MCF7; experiment: CellTiter-Glo Viability Assay, breast cancer; type: cell-based; settings: Homo sapiens, MCF7, 96 h
[4] = system: ZR-75-1; experiment: CellTiter-Glo Viability Assay, breast cancer; type: cell-based; settings: Homo sapiens, ZR-75-1, 96 h
[5] = system: T47D; experiment: CellTiter-Glo Viability Assay, breast cancer; type: cell-based; settings: Homo sapiens, 96 h
[6] = system: HCC1599; experiment: CellTiter-Glo Viability Assay, breast cancer; type: cell-based; settings: Homo sapiens, HCC1599, 96 h
[7] = system: DU4475; experiment: CellTiter-Glo Viability Assay, breast cancer; type: cell-based; settings: Homo sapiens, DU-4475, 96 h
[8] = system: CAMA1; experiment: CellTiter-Glo Viability Assay, breast cancer; type: cell-based; settings: Homo sapiens, CAMA-1, 96 h
[9] = system: MDA-MB-231-Luc; experiment: CellTiter-Glo Viability Assay, breast cancer; type: cell-based; settings: Homo sapiens, 96 h
[10] = system: BT-549; experiment: CellTiter-Glo Viability Assay, breast cancer; type: cell-based; settings: Homo sapiens, BT-549, 96 h
[11] = system: lung cancer (4 cell lines); experiment: CellTiter-Glo Viability Assay, lung cancer; type: cell-based; settings: Homo sapiens
[12] = system: liver cancer (3 cell lines); experiment: CellTiter-Glo Viability Assay, liver cancer; type: cell-based; settings: Homo sapiens
[13] = system: ovarian cancer (4 cell lines); experiment: CellTiter-Glo Viability Assay, ovarian cancer; type: cell-based; settings: Homo sapiens
[14] = biological target: CLK3 (Homo sapiens, UniProt P49761); experiment: CLK3 kinase activity assay (Z-lyte, Ser/Thr 18 peptide)
Sequence of CLK3 (P49761 whole entry): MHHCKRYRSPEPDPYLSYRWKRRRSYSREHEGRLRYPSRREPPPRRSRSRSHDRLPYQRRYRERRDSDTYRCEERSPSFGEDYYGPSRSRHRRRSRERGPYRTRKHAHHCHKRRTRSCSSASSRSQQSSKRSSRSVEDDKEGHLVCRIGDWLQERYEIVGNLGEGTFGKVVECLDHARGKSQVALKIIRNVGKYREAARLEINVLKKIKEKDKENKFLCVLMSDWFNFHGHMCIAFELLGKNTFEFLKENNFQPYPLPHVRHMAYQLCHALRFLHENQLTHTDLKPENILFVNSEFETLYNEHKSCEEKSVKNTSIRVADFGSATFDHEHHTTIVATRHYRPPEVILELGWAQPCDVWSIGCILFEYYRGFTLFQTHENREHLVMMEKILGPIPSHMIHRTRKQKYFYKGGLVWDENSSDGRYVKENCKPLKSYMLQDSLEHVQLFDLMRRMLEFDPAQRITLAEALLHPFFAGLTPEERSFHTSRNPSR

[15] = system: colorectal cancer (6 cell lines); experiment: CellTiter-Glo Viability Assay, colorectal cancer; type: cell-based; settings: Homo sapiens
[16] = system: prostate cancer (5 cell lines); experiment: CellTiter-Glo Viability Assay, prostate cancer; type: cell-based; settings: Homo sapiens
[17] = system: all 50 cell lines; experiment: CellTiter-Glo Viability Assay, average across all cell lines; type: cell-based; settings: Homo sapiens, read-out: average EC50 for inhibition of cancer cell proliferation
Procedure, shortened: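 Luminescent ATP read-out (CellTiter-Glo) after a 4-day compound exposure at 37° C served as the viability measure. Cells were seeded at 300-3,000/well, compound wells run in duplicate against DMSO controls, and EC50 values came from fitted dose-response curves.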

SMILES: CN1CCN(C(=O)C(C)(C)c2ccc(C(=O)Nc3cn4cc(-c5ccncc5)ccc4n3)cc2)CC1 [Compound 27]
- EC50 ([1]; DND41, read-out: Haematopoietic & Lymphoid tumors, EC50 (μM) DND-41): 1.78 µM
- EC50 ([1]; HL-60, read-out: Haematopoietic & Lymphoid tumors, EC50 (μM) HL-60): 4.98 µM
- EC50 ([1]; JM1, read-out: Haematopoietic & Lymphoid tumors, EC50 (μM) JM1): 0.982 µM
- EC50 ([1]; JeKo-1, read-out: Haematopoietic & Lymphoid tumors, EC50 (μM) JeKo-1): 1.22 µM
- EC50 ([1]; Jurkat, read-out: Haematopoietic & Lymphoid tumors, EC50 (μM) JURKAT, Clone E6-1): 3.85 µM
- EC50 ([1]; Kasumi 1, read-out: Haematopoietic & Lymphoid tumors, EC50 (μM) KASUMI-1): 2.1 µM
- EC50 ([1]; MOLT-4, read-out: Haematopoietic & Lymphoid tumors, EC50 (μM) MOLT-4): 2.39 µM
- EC50 ([1]; MV4-11, read-out: Haematopoietic & Lymphoid tumors, EC50 (μM) MV-4-11): 0.275 µM
- EC50 ([1]; Rec1, read-out: Haematopoietic & Lymphoid tumors, EC50 (μM) REC-1): 1 µM
- EC50 ([1]; SU-DHL-4, read-out: Haematopoietic & Lymphoid tumors, EC50 (μM) SUDHL4): 2.54 µM
- EC50 ([1]; TF-1, read-out: Haematopoietic & Lymphoid tumors, EC50 (μM) TF-1): 3.41 µM
- EC50 ([1]; Toledo, read-out: Haematopoietic & Lymphoid tumors, EC50 (μM) TOLEDO): 1.1 µM
- EC50 ([1]; read-out: Haematopoietic & Lymphoid tumors, EC50 (μM) Loucy): 1.49 µM
- EC50 ([2]; BXPC-3, read-out: Pancreatic cancer, EC50 BxPC3): 4.61 µM
- EC50 ([2]; CAPAN-1, read-out: Pancreatic cancer, EC50 Capan1): 3.47 µM
- EC50 ([2]; Capan-2, read-out: Pancreatic cancer, EC50 Capan2): 3.77 µM
- EC50 ([2]; MIA PaCa-2, read-out: Pancreatic cancer, EC50 MIA PaCa-2): 1.44 µM
- EC50 ([2]; PANC-1, read-out: Pancreatic cancer, EC50 PANC-1): 4.64 µM
- EC50 ([2]; Panc 05.04, read-out: Pancreatic cancer, EC50 PANC 05.04): 3.64 µM
- EC50 ([2]; read-out: Pancreatic cancer, EC50 UPAFII): 1.87 µM
- EC50 [3]: 3.97 µM
- EC50 [4]: 3.91 µM
- EC50 [5]: 4.1 µM
- EC50 [6]: 8.04 µM
- EC50 [7]: 1.99 µM
- EC50 [8]: 4.25 µM
- EC50 [9]: 3.65 µM
- EC50 [10]: 3.61 µM
- EC50 ([11]; A-427, read-out: Lung cancer, EC50 (μM) A427): 3.08 µM
- EC50 ([11]; HCC78, read-out: Lung cancer, EC50 (μM) HCC-78): 3.72 µM
- EC50 ([11]; NCI-H460, read-out: Lung cancer, EC50 (μM) NCI-H460): 3.54 µM
- EC50 ([11]; NCI-H522, read-out: Lung cancer, EC50 (μM) NCI-H522): 1.99 µM
- EC50 ([12]; HepG2, read-out: Liver cancer, EC50 HEPG2): 3.34 µM
- EC50 ([12]; PLC-PRF-5, read-out: Liver cancer, EC50 PLC/PRF/5): 4.02 µM
- EC50 ([12]; SNU-398, read-out: Liver cancer, EC50 SNU398): 0.917 µM
- EC50 ([13]; OV-90, read-out: Ovarian cancer, EC50 (μM) OV-90): 3.87 µM
- EC50 ([13]; OVCAR-3, read-out: Ovarian cancer, EC50 (μM) OVCAR-3): 1.31 µM
- EC50 ([13]; PA-1, read-out: Ovarian cancer, EC50 (μM) PA1): 1.58 µM
- EC50 ([13]; TOV112D, read-out: Ovarian cancer, EC50 (μM) TOV-112D): 2.32 µM
- EC50 [14]: 0.035 µM
- EC50 ([15]; DLD-1, read-out: Colorectal cancer, EC50 (μM) DLD-1): 1.65 µM
- EC50 ([15]; HCT-116, read-out: Colorectal cancer, EC50 (μM) HCT116): 1.08 µM
- EC50 ([15]; HT-29, read-out: Colorectal cancer, EC50 (μM) HT29): 2.38 µM
- EC50 ([15]; SW48, read-out: Colorectal cancer, EC50 (μM) SW48): 0.675 µM
- EC50 ([15]; SW480, read-out: Colorectal cancer, EC50 (μM) SW480): 1.08 µM
- EC50 ([15]; SW-620, read-out: Colorectal cancer, EC50 (μM) SW620): 0.97 µM
- EC50 ([16]; 22Rv1, read-out: Prostate cancer EC50 22Rv1): 2.91 µM
- EC50 ([16]; DU-145, read-out: Prostate cancer EC50 Du-145): 3.39 µM
- EC50 ([16]; LNCaP-Clone-FGC, read-out: Prostate cancer EC50 LNCap clone FGC): 4.18 µM
- EC50 ([16]; PC-3, read-out: Prostate cancer EC50 PC3): 2.58 µM
- EC50 ([16]; VCaP, read-out: Prostate cancer EC50 VCaP (Sigma)): 7.47 µM
- EC50 [17]: 2.84 µM
